From PubChem BioAssay AID1963424 (Molecular Pharmacology Branch, DTP, NCI, 2024)

Tested on: 327498-153-R-J2-PDC complex spheroid growth, % test/control
Experiment: Anticancer human tumor 327498-153-R-J2-PDC patient-derived uterine carcinosarcoma cell line growth inhibition [Asc]
Details: for IC50: curve of first compound; for viability, T/C: stronger effect = lower value
In short: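 Stromal components (HUVEC and hMSC) are co-assembled with the cancer cells into multicellular spheroids. Drugs are then added singly or paired, at concentrations falling by half-log increments from a clinically achievable maximum, capped at 10 microM without known Cmax.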

[1] = second compound 0.1 µM, first compound 0.00316 µM
[2] = second compound 0.1 µM, first compound 0.01 µM
[3] = second compound 0.1 µM, first compound 0.0316 µM
[4] = second compound 0.1 µM, first compound 0.1 µM
[5] = second compound 0.1 µM, first compound 0.316 µM
[6] = second compound 0.1 µM, first compound 1 µM
[7] = second compound 0.316 µM, first compound 0.00316 µM
[8] = second compound 0.316 µM, first compound 0.01 µM
[9] = second compound 0.316 µM, first compound 0.0316 µM
[10] = second compound 0.316 µM, first compound 0.1 µM
[11] = second compound 0.316 µM, first compound 0.316 µM
[12] = second compound 0.316 µM, first compound 1 µM
[13] = second compound 1 µM, first compound 0.00316 µM
[14] = second compound 1 µM, first compound 0.01 µM
[15] = second compound 1 µM, first compound 0.0316 µM
[16] = second compound 1 µM, first compound 0.1 µM
[17] = second compound 1 µM, first compound 0.316 µM
[18] = second compound 1 µM, first compound 1 µM
[19] = second compound 3.16 µM, first compound 0.00316 µM
[20] = second compound 3.16 µM, first compound 0.01 µM
[21] = second compound 3.16 µM, first compound 0.0316 µM
[22] = second compound 3.16 µM, first compound 0.1 µM
[23] = second compound 3.16 µM, first compound 0.316 µM
[24] = second compound 3.16 µM, first compound 1 µM
[25] = second compound 10 µM, first compound 0.00316 µM
[26] = second compound 10 µM, first compound 0.01 µM
[27] = second compound 10 µM, first compound 0.0316 µM
[28] = second compound 10 µM, first compound 0.1 µM
[29] = second compound 10 µM, first compound 0.316 µM
[30] = second compound 10 µM, first compound 1 µM
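Further: spheroids exposed to compound for 7 days after 3 days of growth.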
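Wherever viability, T/C is given: 100% = DMSO vehicle control wells.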

SMILES | IC50 (second compound 0.1 µM) [nM] | IC50 (second compound 0.316 µM) [nM] | IC50 (second compound 1 µM) [nM] | IC50 (second compound 3.16 µM) [nM] | IC50 (second compound 10 µM) [nM] | viability, T/C [1] [%] | viability, T/C [2] [%] | viability, T/C [3] [%] | viability, T/C [4] [%] | viability, T/C [5] [%] | viability, T/C [6] [%] | viability, T/C [7] [%] | viability, T/C [9] [%] | viability, T/C [10] [%] | viability, T/C [15] [%] | viability, T/C [16] [%] | viability, T/C [21] [%] | viability, T/C [22] [%] | viability, T/C [27] [%] | viability, T/C [28] [%] | other results
CCN1CCN(Cc2ccc(Nc3ncc(F)c(-c4cc(F)c5nc(C)n(C(C)C)c5c4)n3)nc2)CC1 + Cc1c(S(C)(=O)=O)c(-c2cc(F)cc(N3CCN(c4ccc(NS(=O)(=O)c5ccc(NC(CCN6CCC(C(=O)OCCCP(=O)(O)O)CC6)CSc6ccccc6)c(S(=O)(=O)C(F)(F)F)c5)cc4)CC3)c2)c(-c2ccc(Cl)cc2)n1C(C)C | > 1000 | > 1000 | > 1000 | > 1000 | > 1000 | 101 | 94.9 | 76.3 | 64.1 | 64.5 | 67.8 | 94.7 | 78.2 | 63.9 | 85.9 | 65.7 | 72.1 | 55.8 | 145 | 105 | viability, T/C [8]: 95.2%; viability, T/C [11]: 49.7%; viability, T/C [12]: 55.8%; viability, T/C [13]: 95.3%; viability, T/C [14]: 93%; viability, T/C [17]: 56.9%; viability, T/C [18]: 57.2%; viability, T/C [19]: 105%; viability, T/C [20]: 94.7%; viability, T/C [23]: 62.3%; viability, T/C [24]: 49.5%; viability, T/C [25]: 184%; viability, T/C [26]: 172%; viability, T/C [29]: 96%; viability, T/C [30]: 79.4%
Cn1ncnc1[C@H]1c2n[nH]c(=O)c3cc(F)cc(c23)N[C@@H]1c1ccc(F)cc1 + Cc1c(S(C)(=O)=O)c(-c2cc(F)cc(N3CCN(c4ccc(NS(=O)(=O)c5ccc(NC(CCN6CCC(C(=O)OCCCP(=O)(O)O)CC6)CSc6ccccc6)c(S(=O)(=O)C(F)(F)F)c5)cc4)CC3)c2)c(-c2ccc(Cl)cc2)n1C(C)C | 10.9 | 11.4 | 7.37 | 8.06 | 10.3 | 89.5 | 51.4 | 19.3 | 7.05 | – | – | 86.9 | 14.9 | 6.5 | 15.3 | 5.39 | 14.9 | 4.76 | 18.2 | 5.74 | viability, T/C (second compound 0.1 µM, first compound 0.000316 µM): 103%; viability, T/C (second compound 0.1 µM, first compound 0.001 µM): 97.1%; viability, T/C (second compound 0.316 µM, first compound 0.000316 µM): 92.6%; viability, T/C (second compound 0.316 µM, first compound 0.001 µM): 84.5%; viability, T/C [8]: 54%; viability, T/C (second compound 1 µM, first compound 0.000316 µM): 99.3%; viability, T/C (second compound 1 µM, first compound 0.001 µM): 104%; viability, T/C [13]: 81.7%; viability, T/C [14]: 37.7%; viability, T/C (second compound 3.16 µM, first compound 0.000316 µM): 92.7%; viability, T/C (second compound 3.16 µM, first compound 0.001 µM): 91.6%; viability, T/C [19]: 80.3%; viability, T/C [20]: 42.2%; viability, T/C (second compound 10 µM, first compound 0.000316 µM): 174%; viability, T/C (second compound 10 µM, first compound 0.001 µM): 178%; viability, T/C [25]: 150%; viability, T/C [26]: 50.1%
O=C(c1cc(Cc2n[nH]c(=O)c3ccccc23)ccc1F)N1CCN(C(=O)C2CC2)CC1 + Cc1c(S(C)(=O)=O)c(-c2cc(F)cc(N3CCN(c4ccc(NS(=O)(=O)c5ccc(NC(CCN6CCC(C(=O)OCCCP(=O)(O)O)CC6)CSc6ccccc6)c(S(=O)(=O)C(F)(F)F)c5)cc4)CC3)c2)c(-c2ccc(Cl)cc2)n1C(C)C | 3740 | 2530 | 2490 | 2500 | 3150 | – | – | 103 | 102 | 88.6 | 88.1 | – | 85.4 | 89.2 | 94.5 | 102 | 94 | 89.5 | 164 | 164 | viability, T/C (second compound 0.1 µM, first compound 3.16 µM): 55.5%; viability, T/C (second compound 0.1 µM, first compound 10 µM): 9.69%; viability, T/C [11]: 86.4%; viability, T/C [12]: 75.4%; viability, T/C (second compound 0.316 µM, first compound 3.16 µM): 43.9%; viability, T/C (second compound 0.316 µM, first compound 10 µM): 7.08%; viability, T/C [17]: 86.9%; viability, T/C [18]: 76.9%; viability, T/C (second compound 1 µM, first compound 3.16 µM): 43%; viability, T/C (second compound 1 µM, first compound 10 µM): 6.29%; viability, T/C [23]: 86%; viability, T/C [24]: 76%; viability, T/C (second compound 3.16 µM, first compound 3.16 µM): 43.2%; viability, T/C (second compound 3.16 µM, first compound 10 µM): 4.54%; viability, T/C [29]: 157%; viability, T/C [30]: 112%; viability, T/C (second compound 10 µM, first compound 3.16 µM): 49.1%; viability, T/C (second compound 10 µM, first compound 10 µM): 6.96%
O=C(c1ccc(F)c(F)c1Nc1ccc(I)cc1F)N1CC(O)([C@@H]2CCCCN2)C1 + Cc1c(S(C)(=O)=O)c(-c2cc(F)cc(N3CCN(c4ccc(NS(=O)(=O)c5ccc(NC(CCN6CCC(C(=O)OCCCP(=O)(O)O)CC6)CSc6ccccc6)c(S(=O)(=O)C(F)(F)F)c5)cc4)CC3)c2)c(-c2ccc(Cl)cc2)n1C(C)C | 277 | 215 | 196 | 146 | 458 | 92.1 | 96.2 | 81.7 | 67.3 | 49 | 18.4 | 91.5 | 76.9 | 62.9 | 74.5 | 58.7 | 75.1 | 56.4 | 131 | 97.9 | viability, T/C [8]: 80.4%; viability, T/C [11]: 44.1%; viability, T/C [12]: 14.6%; viability, T/C [13]: 98.6%; viability, T/C [14]: 80.6%; viability, T/C [17]: 49%; viability, T/C [18]: 12.9%; viability, T/C [19]: 91.5%; viability, T/C [20]: 84.9%; viability, T/C [23]: 35.9%; viability, T/C [24]: 15.4%; viability, T/C [25]: 170%; viability, T/C [26]: 167%; viability, T/C [29]: 70.8%; viability, T/C [30]: 17.1%
